Read-outs that look alike come from different tables or passages of the source.
Tests used:
[1] = system: immortalized murine endothelial cell line from peripheral lymph node HEC A10; assay: Sulforhodamine B antiproliferative assay, HEC A10; assay type: cell-based; details: Mus musculus, compound 0.5 mM, 72 h, read-out: % Proliferation inhibition ± SD
Method: (§1) The BALB/3T3 cell line was cultured in Dulbecco MEM (Gibco, Scotland) supplemented with 10% (v/v) FBS (Sigma-Aldrich, Poznań, Poland) and 2 mM L-glutamine (Sigma-Aldrich, Poznań, Poland). The MCF-10A cell line was cultured in F-12 Nutrient mixture supplemented with 5% (v/v) horse serum (both Gibco, Scotland), 0.05 μg/mL cholera toxin, 10 μg/mL insulin, 0.5 μg/mL hydrocortisone, and 20 ng/mL EGFH (all Sigma-Aldrich, Poznań, Poland). The Eph4-Ev cell line was cultured in Dulbecco MEM supplemented with 2 mM L-glutamine, 10% (v/v) calf bovine serum (ATCC Rockville, Maryland, USA) and puromycin (Sigma-Aldrich, Poznań, Poland). The HEC A10 cell line was cultured in OPTI-MEM (IIET, Wroclaw, Poland) supplemented with 2 mM L-glutamine and 5% (v/v) FBS. All culture media were additionally supplemented with antibiotics: 100 U/mL penicillin and 100 μg/mL streptomycin (both Polfa-Tarchomin, Poland). During all experiments, cells were maintained in a humid atmosphere at 37°C and 5% CO2 and passaged twice a week using EDTA-Trypsin (pH 8; IIET, Wroclaw, Poland) solution as a detachment agent.
(§2) This assay was used as previously described with minor modifications. Briefly, 24 h before adding the tested compounds, cells were seeded in 96-well plates (Sarstedt, Germany) in appropriate culture medium with 10^5 […] (100 μL/well). Cells were treated with each compound in at least four concentrations in the range from 500–4 μM for 72 h. Next, cells were fixed with 50 μL/well of 50% (w/v) trichloroacetic acid (Avantor Performance Materials, Gliwice, Poland). After a 1-hour incubation, the plates were washed several times with tap water, and 50 μL of 0.4% (w/v) solution of sulforhodamine B (Sigma-Aldrich, Germany) in 1% (v/v) acetic acid (Avantor Performance Materials, Gliwice, Poland) was added to each well. After a 30-min incubation at room temperature, unbound dye was washed out with 1% (v/v) acetic acid, whereas bound dye was solubilized with 10 mM unbuffered TRIS (Avantor Performance Materials, Gliwice, Poland) solution. The entire procedure was performed using an EL-406 washing station (BioTek Instruments, USA). Next, absorbance at 540 nm was measured using a Synergy H4 Hybrid Reader (BioTek Instruments, USA). Compounds at each concentration were tested in triplicate in a single experiment, and each experiment was repeated three times independently. The results were calculated using the Prolab-3 system based on Cheburator 0.4 software and was presented as proliferation inhibition percentages at the highest concentration used.

[2] = target: T1, urease in intact E. coli (pGEM::ureOP) cells (Helicobacter pylori, UniProt B5Z674); assay: Urease inhibition in whole cells of E. coli + pGEM::ureOP; assay type: cell-based; details: IC50 exceeding 2 mM considered not active
T1 construct: plasmid pGEM::ureOP, which encodes the entire urease gene cluster, was used to produce recombinant H. pylori urease; expressed in transfected cells; host or cells: E. coli Rosetta2 (DE3) transformed with pGEM::ureOP
T1 sequence (B5Z674 whole entry, looked up): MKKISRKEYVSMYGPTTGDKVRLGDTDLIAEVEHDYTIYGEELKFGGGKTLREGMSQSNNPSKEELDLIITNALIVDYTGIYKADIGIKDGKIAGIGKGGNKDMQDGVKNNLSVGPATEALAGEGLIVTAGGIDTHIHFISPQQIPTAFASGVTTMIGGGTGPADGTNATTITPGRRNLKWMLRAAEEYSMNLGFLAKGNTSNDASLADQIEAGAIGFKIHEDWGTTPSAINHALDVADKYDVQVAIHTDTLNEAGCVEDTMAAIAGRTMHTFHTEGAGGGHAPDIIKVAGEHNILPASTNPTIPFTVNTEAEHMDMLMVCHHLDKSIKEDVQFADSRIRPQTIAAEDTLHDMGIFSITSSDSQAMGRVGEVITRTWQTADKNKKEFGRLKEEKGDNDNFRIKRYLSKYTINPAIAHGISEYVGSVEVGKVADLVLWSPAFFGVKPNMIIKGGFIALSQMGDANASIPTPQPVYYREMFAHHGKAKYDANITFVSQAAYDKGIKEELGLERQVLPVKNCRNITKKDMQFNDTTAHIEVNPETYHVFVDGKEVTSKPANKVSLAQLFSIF
Method: The expression strain E. coli + pGEM::ureOP was cultured in 150 mL of LB broth (Biocorp, Poland) with 100 μg/mL ampicillin (Polfa, Tarchomin, Poland) at 37°C and induced with IPTG (0.75 mM) and Ni^2+ (0.75 mM) during the exponential growth phase, which was determined by the OD600 measurements (OD600 = 0.6). Further expression was conducted for 24 h at 22°C. The bacterial culture (1 mL) was harvested via centrifugation (2 min, 20 376 x g, 37°C) and washed three times with PBS. The pellets from 1-mL samples of the expression cell culture were resuspended in 100 μL of PBS. The hydrolysis of urea that is catalyzed by whole bacterial cells was performed in 96-well plates (Rotilabo, U-profile). The reaction progress curves were obtained by the addition of bacterial cells (1×10^9 CFU/mL final concentration) into mixtures (300 μL final volume) that contained 5 mM urea and various inhibitor concentrations that depended on their inhibitory strength. Alternatively, the reaction was initiated via the addition of a concentrated solution of urea after a 120-min preincubation of bacterial cells with the inhibitor. Samples (50 μL) of the reaction mixture were removed after the appropriate reaction time. The enzymatic reactions in the samples were terminated via the introduction of 100 μL of phenol-sodium nitroprusside solution, immediately followed by the addition of 100 μL of NaOH-hypochlorite solution. The absorption of indophenol blue was measured at 650 nm using a TECAN-Sunrise absorbance reader equipped with a gradient filter and Magellan software. The IC50 values were determined from the linear regression of the urease activity versus the logarithm of the inhibitor concentration. The reaction was studied in the absence and in the presence of the inhibitor. The influence of dimethylformamide (DMF), which was used as a solvent for several compounds, was also determined.

[3] = system: human mammary gland MCF-10A; assay: Sulforhodamine B antiproliferative assay, MCF-10A; assay type: cell-based; details: compound 0.5 mM, 72 h, read-out: % Proliferation inhibition ± SD
Method: as §1, §2

[4] = system: mouse fibroblasts BALB/3T3; assay: Sulforhodamine B antiproliferative assay, BALB/3T3; assay type: cell-based; details: compound 0.5 mM, 72 h, read-out: % Proliferation inhibition ± SD
Method: as §1, §2

[5] = target: T2, urease in intact H. pylori J99 (Helicobacter pylori, UniProt P69997); assay: Urease inhibition in whole cells of H. pylori J99; assay type: cell-based
T2 construct: In the intact H. pylori J99 cells, the urease susceptibility profile was similar to that of E. coli (pGEM::ureOP); endogenous in cells
T2 sequence (Q9ZMZ4 whole entry): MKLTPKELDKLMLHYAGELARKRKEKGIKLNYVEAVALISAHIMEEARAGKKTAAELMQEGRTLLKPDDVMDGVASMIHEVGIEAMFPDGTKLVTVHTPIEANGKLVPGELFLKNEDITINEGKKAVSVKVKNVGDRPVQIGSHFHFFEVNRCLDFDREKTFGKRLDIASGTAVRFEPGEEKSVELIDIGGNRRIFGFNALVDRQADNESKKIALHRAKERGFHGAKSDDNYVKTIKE
T2 sequence (P69997 whole entry): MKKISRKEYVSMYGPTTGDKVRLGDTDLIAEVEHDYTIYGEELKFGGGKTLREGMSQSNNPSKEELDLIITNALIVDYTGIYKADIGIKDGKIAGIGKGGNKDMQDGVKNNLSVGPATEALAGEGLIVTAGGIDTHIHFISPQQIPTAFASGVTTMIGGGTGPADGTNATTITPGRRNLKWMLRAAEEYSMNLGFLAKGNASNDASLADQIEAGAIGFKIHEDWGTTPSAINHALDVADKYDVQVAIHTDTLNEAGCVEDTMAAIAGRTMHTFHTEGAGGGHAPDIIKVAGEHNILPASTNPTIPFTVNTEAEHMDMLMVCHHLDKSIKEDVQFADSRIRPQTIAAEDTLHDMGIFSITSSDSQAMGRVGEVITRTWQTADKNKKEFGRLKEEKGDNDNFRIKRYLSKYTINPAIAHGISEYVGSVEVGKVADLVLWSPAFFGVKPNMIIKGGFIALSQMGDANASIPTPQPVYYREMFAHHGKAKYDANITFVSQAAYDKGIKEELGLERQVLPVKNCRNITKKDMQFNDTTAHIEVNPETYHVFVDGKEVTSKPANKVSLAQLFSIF

[6] = target: T3, purified recombinant urease from H. pylori (Helicobacter pylori, UniProt B5Z674); assay: Inhibition of purified recombinant H. pylori urease (phenol-hypochlorite, Lineweaver-Burk); assay type: biochemical; details: 50 mM phosphate buffer pH 7.5, 37°C, 0.1–2.5 mM urea, competitive reversible inhibition
T3 construct: plasmid pGEM::ureOP, which encodes the entire urease gene cluster, was used to produce recombinant H. pylori urease; made in house; host or cells: E. coli Rosetta2 (DE3) + pGEM::ureOP
T3 sequence (B5Z674 whole entry, looked up): as the sequence (B5Z674 whole entry, looked up) above
Method: The kinetic parameters of urease were determined by measuring the initial rates of the reactions in 50 mM phosphate buffer (pH 7.5) at 37°C. Ammonia was routinely quantified by the phenol hypochlorite method as reported previously.
Inhibition studies were conducted by initiating the enzymatic reaction with the addition of the enzyme into assay mixtures (200 μL total volume) containing increasing concentrations of inhibitors and 0.1–2.5 mM urea. After 15 min of incubation at 37°C, the reaction was stopped by adding phenol-hypochlorite reagents and the absorbance of the formed indophenol blue complexes was measured at 650 nm. The Ki values were determined from Lineweaver-Burk plots after testing at least five inhibitor concentrations in a range that depended on their inhibitory strength. The concentration of inhibitor that caused the loss of 50% of the enzyme’s activity (IC50) was determined from the measurements that were performed at a urea concentration of 0.6 mM and calculated using the linear regression of the urease activity versus the logarithm of the inhibitor concentrations.
The values of Ki and IC50 for all analyzed compounds were calculated using the appropriate equations in GraphPad Prism 5. Errors were reported with two significant digits, and each measured parameter was given with the same number of decimal places as its error [32].

[7] = system: murine mammary gland epithelium Eph4-Ev; assay: Sulforhodamine B antiproliferative assay, Eph4-Ev; assay type: cell-based; details: Mus musculus, compound 0.5 mM, 72 h, read-out: % Proliferation inhibition ± SD
Method: as §1, §2

[8] = read-out: IC500, without preincubation of cells with inhibitory compounds, 30-min reactions, 5 mM urea
[9] = read-out: IC502h PBS, 2 h of preincubation with inhibitors in PBS
[10] = without preincubation of cells with inhibitory compounds, 30-min reactions, 5 mM urea
[11] = cells grown with urea, 2 h of preincubation with inhibitors in PBS under microaerobic conditions, read-out: IC502h PBS
[12] = cells grown with urea, 2 h of preincubation with inhibitors in growth medium under microaerobic conditions, read-out: IC502h medium
[13] = cells grown with urea, without preincubation, read-out: IC500
[14] = cells grown without urea, 2 h of preincubation with inhibitors in PBS under microaerobic conditions, read-out: IC502h PBS
[15] = cells grown without urea, without preincubation, read-out: IC500
[16] = IC502h PBS, 2 h of preincubation with inhibitors in PBS
[17] = IC500, without preincubation of cells with inhibitory compounds, 30-min reactions, 5 mM urea

Row | SMILES | IC50 [2, 8] [µM] | IC50 [2, 9] [µM] | IC500 [2, 10] | IC50 [5, 11] [µM] | IC50 [5, 12] [µM] | IC50 [5, 13] [µM] | IC50 [5, 14] [µM] | IC50 [5, 15] [µM] | Ki ([6]; Ki) [µM] | further results
1 | NCP(=O)(O)CN [Compound 6, Bis(aminomethyl)phosphinic acid] | > 2000 | > 2000 | complete lack of inhibitory effects | > 2000 | > 2000 | > 2000 | 611 ± 63 | 1300 ± 239 | 61 ± 9.2 | inhibition at 500 µM [1]: 7.7 ± 2.4%; inhibition at 500 µM [3]: 0%; inhibition at 500 µM [4]: 3.2 ± 1.6%; inhibition at 500 µM [7]: 0%
2 | NCP(=O)(O)CNC1CCCCC1 [Compound 17] | > 2000 | > 2000 | – | > 2000 | > 2000 | > 2000 | > 2000 | > 2000 | – | –
3 | CC(C)CNCP(=O)(O)CN [Compound 10] | > 2000 | – | – | 1130 ± 83 | 835 ± 34 | > 2000 | 980 ± 35 | 913 ± 63 | 440 ± 70 | IC50 [2, 16]: 1870 ± 113 µM
4 | CNCP(C)(=O)O [Compound 2] | – | – | – | 468 ± 21 | 274 ± 87 | 597.4 ± 5.2 | 852 ± 40 | 480 ± 79 | 61.6 ± 3.5 | inhibition at 500 µM [1]: 0%; IC50 [2, 17]: 573 ± 76 µM; IC50 [2, 16]: 306 ± 48 µM; inhibition at 500 µM [3]: 0%; inhibition at 500 µM [4]: 1.4 ± 1.1%; inhibition at 500 µM [7]: 1.1 ± 1%
5 | CN(C)CP(=O)(O)CN(C)C [Compound 22] | > 2000 | > 2000 | – | > 2000 | > 2000 | > 2000 | > 2000 | > 2000 | – | –
6 | CCCCCNCP(=O)(O)CN [Compound 12] | – | – | – | 853 ± 93 | 806 ± 72 | 813 ± 61 | 917 ± 105 | 872 ± 68 | 43.1 ± 3.6 | IC50 [2, 17]: 1670 ± 232 µM; IC50 [2, 16]: 475 ± 73 µM
7 | CC(=O)NO [Compound 24, acetohydroxamic acid, reference compound] | – | – | – | 1360 ± 194 | 192 ± 26 | 1670 ± 70 | 156 ± 32 | > 2000 | – | IC50 ([2]; 2 h of preincubation with inhibitors in PBS, read-out: IC502h PBS): 96 ± 17 µM; IC50 ([2]; without preincubation of cells with inhibitory compounds, 30-min reactions, 5 mM urea, read-out: IC500): 153 ± 31 µM; IC50 ([5]; urea-grown cells, preincubation in PBS, read-out: IC502h PBS): 1350 µM; IC50 ([5]; urea-grown cells, without former preincubation, read-out: IC500): 1660 µM; Ki ([6]; listed as acetohydroxamic acid, read-out: Ki): 23 µM; Ki ([6]; read-out: Ki): 23.2 ± 1.5 µM
8 | CCCCCCCNCP(=O)(O)CN [Compound 14] | > 2000 | > 2000 | complete lack of inhibitory effects | 672 ± 52 | 474 ± 34 | 942 ± 79 | 675 ± 33 | 743 ± 74 | 878 ± 25 | –
9 | CN(C)CP(=O)(O)CN [Compound 8] | – | – | – | – | – | – | – | – | 29.9 ± 2 | –
10 | O=P(O)(CNCc1ccccc1)CNCc1ccccc1 [Compound 23] | – | – | complete lack of inhibitory effects | > 2000 | > 2000 | > 2000 | > 2000 | > 2000 | 50.7 ± 4.8 | –
11 | CN(Cc1ccccc1)CP(=O)(O)CN [Compound 19] | – | – | complete lack of inhibitory effects | > 2000 | > 2000 | > 2000 | > 2000 | > 2000 | 36.4 ± 4.9 | –
12 | CCCCCCNCP(=O)(O)CO [Compound 5] | – | – | – | – | – | – | – | – | 74.3 ± 4.7 | –
13 | NCP(=O)(O)CNCc1ccccc1 [Compound 18] | > 2000 | > 2000 | complete lack of inhibitory effects | > 2000 | > 2000 | > 2000 | > 2000 | > 2000 | 44.4 ± 2.5 | –
14 | CCN(CC)CP(=O)(O)CN [Compound 20] | > 2000 | > 2000 | – | > 2000 | > 2000 | > 2000 | > 2000 | > 2000 | – | –
15 | NCP(=O)(O)CN1CCCCC1 [Compound 16] | > 2000 | > 2000 | – | > 2000 | > 2000 | > 2000 | > 2000 | > 2000 | – | –
16 | CCCCNCP(=O)(O)CN [Compound 11] | – | – | – | 816 ± 39 | 470 ± 38 | 733 ± 9.2 | 933 ± 206 | 881 ± 35 | 27 ± 2.1 | IC50 [2, 17]: 779 ± 99 µM; IC50 [2, 16]: 284 ± 41 µM

From article PMC5550016, “Aminophosphinates against Helicobacter pylori ureolysis—Biochemical and whole-cell inhibition characteristics” (PLoS ONE, 2017)
